The test system of the assay is HEK293. The assay is described as follows: Agonist activity at human PPAR-beta expressed in HEK293 cells co-transfected with luciferase reporter plasmid assessed as receptor transactivation at 10 nM incubated for 18 hrs by luciferase reporter gene assay relative to control. The format is cell-based. The following applies: filed as agonist. (Reporter assays use an easily measured gene product as a stand-in for the process of interest.)

Structures are written as SMILES.

Consider `Cc1cc(SCc2sc(-c3ccc(C(F)(F)F)c(F)c3)nc2C)ccc1OCC(=O)O`, for which the fold change (FC) came to 18.3.

The values above are taken from ChEMBL document CHEMBL5244280, “Evodiamine Lowers Blood Lipids by Up-Regulating the PPARγ/ABCG1 Pathway in High-Fat-Diet-Fed Mice” (J Nat Prod, 2021).
